Test: Phase 1 single ascending dose study with healthy subjects (adverse events)
Type: in vivo, human
Conditions: for No. of subjects reporting AEs / No. of subjects with AE Abdominal pain / No. of subjects with AE Cough / No. of subjects with AE Diarrhoea / No. of subjects with AE Dizziness / No. of subjects with AE Flushing / No. of subjects with AE Headache / No. of subjects with AE Jaw pain / No. of subjects with AE Muscle spasm / No. of subjects with AE Nausea / No. of subjects with AE Neck pain / No. of subjects with AE Oropharyngeal pain / No. of subjects with AE Pain in extremity / No. of subjects with AE Photophobia / No. of subjects with AE Vomiting / Number of Subjects Reporting AEs By Most Direct Relationship to Study Treatment: Definitely not related / Number of Subjects Reporting AEs By Most Direct Relationship to Study Treatment: Possibly related / Number of Subjects Reporting AEs By Most Direct Relationship to Study Treatment: Probably not related / Number of Subjects Reporting AEs By Most Direct Relationship to Study Treatment: Probably related: 6 subjects
Protocol: This study was a phase 1, randomized, double-blind, placebo-controlled study of four cohorts of 8 subjects each (2 subjects were assigned to receive placebo, and 6 to receive Compound 1). Each cohort was assigned to receive a single dose level of blinded study medication in an ascending dose fashion; dosing began at 0.1 mg.
All enrolled subjects received a single oral dose of study medication (Compound 1 or placebo). Dose escalation was slowed or discontinued when predefined safety criteria based on peak plasma exposure levels, blood pressure changes, or adverse events (AEs) were met. […] Two lower dose cohorts were added, in which the doses of Compound 1were 0.05 mg and 0.03 respectively.
After each cohort was dosed, the following safety parameters were monitored: vital signs, clinical laboratory tests to include serum chemistry, hematology, and urinalysis, 12-lead ECG, plasma Compound 1 concentration, and AEs. Pharmacokinetic parameters were monitored and calculated for Compound 1.

## O=C(O)COC[C@H]1CC[C@H](COC(=O)N(c2ccccc2)c2ccc(Cl)cc2)CC1 [Compound 1, 2-(((1r,4r)-4-(((4-chlorophenyl)(phenyl)carbamoyloxy)methyl)cyclohexyl)methoxy)acetic acid]
2nd cohort, single oral dose 0.2 mg
  AEs on which dose escalation was discontinued: prolonged nausea and vomiting that was severe in intensity
Single dose 0.1 mg, some subjects experienced nausea, vomiting, headache, and jaw pain
  Tolerability of the dose: tolerated
Single dose 0.2 mg
  Tolerability of the dose: Intolerable AEs
Single oral dose 0.03 mg
  No. of subjects reporting AEs: 2 subjects
  No. of subjects with AE Abdominal pain: 0 subjects
  No. of subjects with AE Cough: 0 subjects
  No. of subjects with AE Diarrhoea: 0 subjects
  No. of subjects with AE Dizziness: 0 subjects
  No. of subjects with AE Flushing: 0 subjects
  No. of subjects with AE Headache: 2 subjects
  No. of subjects with AE Jaw pain: 0 subjects
  No. of subjects with AE Muscle spasm: 0 subjects
  No. of subjects with AE Nausea: 0 subjects
  No. of subjects with AE Neck pain: 0 subjects
  No. of subjects with AE Oropharyngeal pain: 0 subjects
  No. of subjects with AE Pain in extremity: 0 subjects
  No. of subjects with AE Photophobia: 0 subjects
  No. of subjects with AE Vomiting: 0 subjects
  Number of Subjects Reporting AEs By Most Direct Relationship to Study Treatment: Definitely not related: 0 subjects
  Number of Subjects Reporting AEs By Most Direct Relationship to Study Treatment: Possibly related: 2 subjects
  Number of Subjects Reporting AEs By Most Direct Relationship to Study Treatment: Probably not related: 0 subjects
  Number of Subjects Reporting AEs By Most Direct Relationship to Study Treatment: Probably related: 0 subjects
Single oral dose 0.05 mg
  No. of subjects reporting AEs: 5 subjects
  No. of subjects with AE Abdominal pain: 1 subjects
  No. of subjects with AE Cough: 0 subjects
  No. of subjects with AE Diarrhoea: 0 subjects
  No. of subjects with AE Dizziness: 0 subjects
  No. of subjects with AE Flushing: 1 subjects
  No. of subjects with AE Headache: 5 subjects
  No. of subjects with AE Jaw pain: 2 subjects
  No. of subjects with AE Muscle spasm: 0 subjects
  No. of subjects with AE Nausea: 1 subjects
  No. of subjects with AE Neck pain: 0 subjects
  No. of subjects with AE Oropharyngeal pain: 0 subjects
  No. of subjects with AE Pain in extremity: 0 subjects
  No. of subjects with AE Photophobia: 1 subjects
  No. of subjects with AE Vomiting: 0 subjects
  Number of Subjects Reporting AEs By Most Direct Relationship to Study Treatment: Definitely not related: 0 subjects
  Number of Subjects Reporting AEs By Most Direct Relationship to Study Treatment: Possibly related: 5 subjects
  Number of Subjects Reporting AEs By Most Direct Relationship to Study Treatment: Probably not related: 0 subjects
  Number of Subjects Reporting AEs By Most Direct Relationship to Study Treatment: Probably related: 0 subjects
Single oral dose 0.1 mg
  No. of subjects reporting AEs: 6 subjects
  No. of subjects with AE Abdominal pain: 1 subjects
  No. of subjects with AE Cough: 0 subjects
  No. of subjects with AE Diarrhoea: 0 subjects
  No. of subjects with AE Dizziness: 1 subjects
  No. of subjects with AE Flushing: 1 subjects
  No. of subjects with AE Headache: 5 subjects
  No. of subjects with AE Jaw pain: 3 subjects
  No. of subjects with AE Muscle spasm: 0 subjects
  No. of subjects with AE Nausea: 2 subjects
  No. of subjects with AE Neck pain: 1 subjects
  No. of subjects with AE Oropharyngeal pain: 0 subjects
  No. of subjects with AE Pain in extremity: 0 subjects
  No. of subjects with AE Photophobia: 0 subjects
  No. of subjects with AE Vomiting: 2 subjects
  Number of Subjects Reporting AEs By Most Direct Relationship to Study Treatment: Definitely not related: 1 subjects
  Number of Subjects Reporting AEs By Most Direct Relationship to Study Treatment: Possibly related: 4 subjects
  Number of Subjects Reporting AEs By Most Direct Relationship to Study Treatment: Probably not related: 0 subjects
  Number of Subjects Reporting AEs By Most Direct Relationship to Study Treatment: Probably related: 1 subjects
Single oral dose 0.2 mg
  No. of subjects reporting AEs: 6 subjects
  No. of subjects with AE Abdominal pain: 0 subjects
  No. of subjects with AE Cough: 0 subjects
  No. of subjects with AE Diarrhoea: 1 subjects
  No. of subjects with AE Dizziness: 0 subjects
  No. of subjects with AE Flushing: 2 subjects
  No. of subjects with AE Headache: 5 subjects
  No. of subjects with AE Jaw pain: 1 subjects
  No. of subjects with AE Muscle spasm: 1 subjects
  No. of subjects with AE Nausea: 3 subjects
  No. of subjects with AE Neck pain: 0 subjects
  No. of subjects with AE Oropharyngeal pain: 1 subjects
  No. of subjects with AE Pain in extremity: 1 subjects
  No. of subjects with AE Photophobia: 0 subjects
  No. of subjects with AE Vomiting: 6 subjects
  Number of Subjects Reporting AEs By Most Direct Relationship to Study Treatment: Definitely not related: 0 subjects
  Number of Subjects Reporting AEs By Most Direct Relationship to Study Treatment: Possibly related: 0 subjects
  Number of Subjects Reporting AEs By Most Direct Relationship to Study Treatment: Probably not related: 0 subjects
  Number of Subjects Reporting AEs By Most Direct Relationship to Study Treatment: Probably related: 6 subjects

Reference: patent US12239627B2, “Method of treating conditions related to the PGI2 receptor” (Arena Pharmaceuticals, Inc., priority 2014, dated 2025)
